Measurements as given in PMC4632323, “Development of a neuroprotective peptide that preserves survival pathways by preventing Kidins220/ARMS calpain processing induced by excitotoxicity” (Cell Death & Disease, 2015).
Where a SMILES comes first, the peptide text is derived from it. Where no end group is shown, it is not given here. The star is where a group is joined. Cbz = O=C(OCc1ccccc1)*

What was measured:
[1] = test system: Kidins220; assay: In vitro digestion of neuronal protein extracts with purified calpain I, immunoblot (Kid-Ct); assay type: biochemical, rat; conditions: calpain I 0-80 U/ml, 15 or 30 min, inhibitor 20 μM
Experimental: (c) Protein extracts from cortical neurons subjected to in vitro digestion with purified calpain I (0, 20, 50 or 80 U/ml) for 15 or 30 min in the absence or presence of calpain inhibitor CiIII (20 μM).
Protein extracts from cortical neurons were subjected to in vitro digestion with purified calpain I (20 U/ml) for 15 min in the presence of peptides Tat-K (K) or Tat-S (S) (0.5 μM). Results were analyzed by immunoblot with Kidins220 (Kid-Ct), spectrin and NSE antibodies.

[2] = test system: Kidins220; assay: Kidins220 calpain processing induced by NMDAR overactivation in cortical neurons, immunoblot; assay type: cell-based, rat; conditions: inhibitor added 1 h before NMDA 100 μM + glycine 10 μM, 4 h; CiIII 20 μM, lactacystin 15 μM; Kid-Nt immunoblot
Experimental: Figure 1 Approximate mapping of Kidins220 processing sites recognized by calpain after induction of excitotoxicity. (a) Immunoblot analysis of primary neuronal cultures (DIV 14) treated with high concentrations of NMDA (100 μM) and glycine (10 μM), herein indicated as NMDA, for 0–6 h. Kidins220 antibodies recognizing a C-terminal peptide (amino acids 1746–1762; Kid-Ct) or the N-terminal region (amino acids 1–402; Kid-Nt), or that specific for the protein neuronal-specific enolase (NSE) were used. Bands corresponding to endogenous full-length (FL) Kidins220 or its different processing N-terminal fragments (Nt-0/Nt-9) are indicated. […]
(a) Cell-membrane peptide Tat-K contains from the N- to the C-terminus amino acids 47–57 of the HIV-1 Tat protein (italic) followed by two proline linker residues and rat Kidins220 amino acids 1668–1681 (bold), which include the major calpain cleavage site (arrow). […] Results were analyzed by immunoblot with Kidins220 (Kid-Ct), spectrin and NSE antibodies. […] Primary cultures of neurons (DIV 14) were incubated with 5, 10 or 25 μM of FITC-labeled control peptide (FITC-Tat-S) for 2, 4 or 6 h and pictures were taken in a conventional fluorescence microscope. […] Cortical neurons were pre-incubated for 1 h with 10 or 25 μM of Tat-K (K) or Tat-S (S) before NMDA addition for 4 h and analyzed by immunoblot with Kidins220 (Kid-Ct), spectrin and NSE antibodies. […]

[3] = test system: cortical neurons; assay: Calcein-AM/propidium iodide staining of viable and dead neurons after excitotoxicity; assay type: cell-based, rat; conditions: peptide 25 μM pre-incubated 1 h, NMDA 4 h; mean ± S.E.M., n=7
Experimental: Figure 5 Neuroprotective effect exerted by Tat-K transduction on excitotoxic neuronal death. (a) Effect of Tat-K on cell death induced by NMDAR overactivation. Primary cultures of cortical neurons (DIV 14) were pre-incubated for 1 h with Tat-S or Tat-K (25 μM) and treated with NMDA for 4 h or left untreated. Next, viable and dead cells were visualized by simultaneous fluorescence staining with calcein-AM (1 μM; green) and propidium iodide (PI; 0.5 mM; red), respectively, for 15 min at 37 °C in the dark. Representative images for each condition are shown. Scale bar, 25 μm. (b) Quantitation of Tat-K effect on the relative percentage of viable/dead neurons found in excitotoxic conditions. A minimum of five random fields containing at least 500 neurons each were counted per experimental condition. […] Statistical significance was determined by paired Student's t-test (**P<0.01). (c) Quantitation of the effect of Tat-K on neuronal viability after induction of excitotoxicity. […] Neuronal viability was established by MTT reduction assay after subtracting the contribution of the glial cells present in the mixed cultures to absorbance as indicated in the Methods section. […] Statistical significance was determined by paired Student's t-test (*P<0.05, **P<0.01) […]

## CC(C)[C@H](NC(=O)OCc1ccccc1)C(=O)N[C@H](C=O)Cc1ccccc1 [CiIII, carbobenzoxy–valinyl–phenylalaninal] (Cbz-Val-Phe-aldehyde)
[1]
  Effect on calpain I cleavage of Kidins220 (decrease of FL-Kidins220 and accumulation of Ct-0): inhibited
[2]
  Effect on NMDA-induced Kidins220 processing (Nt-1/Nt-9 production): strongly prevented NMDA-induced processing

## YGRKKRRQRRRPPLNRTPSTVTLNNNT [Tat-K]
[3]
  Viable neurons (calcein-AM) relative to total number of neurons: 40±7%

## YGRKKRRQRRRPPNTTTLSNLPTNVRN [Tat-S]
[3]
  Viable neurons (calcein-AM) relative to total number of neurons: 23±7%
